Values after ≈ are worked out from the molar mass of the structure shown. Like-named read-outs stand apart in the source and are kept apart here.
Key:
CB1 [1] = target: T1, CB1 (Homo sapiens, UniProt P21554); assay: biochemical; assay type: binding; conditions: for α (binding cooperativity factor): cooperativity with orthosteric agonist [3H]CP55,940, α >1 positive allosteric modulator
T1 construct: expressed in transfected cells; host or cells: HEK293T cells, transient calcium phosphate transfection, pcDNA3.1 vector; membrane preparation
Description: (§1) Human embryonic kidney 293T (HEK293T) cells were grown and seeded in Dulbecco's modified Eagle's medium with 3.5 mg/mL glucose and 10% fetal bovine serum at 37°C and 5% carbon dioxide. To express the CB1 receptors, HEK293T cells were seeded at 1,000,000 cells/100-mm plate. The following day, cells were transfected via the calcium phosphate method with ∼10 μg of human CB1 receptor cloned into pcDNA3.1[23] Membranes of the transfected cells were prepared as previously described 21 h after transfection.[24]
Approximately 3 μg of membrane preparation expressing CB1 was incubated with nine concentrations of allosteric modulator (1 nM-10 μM). The radiolabeled tracer [[3]H]CP55,940 (150.2 Ci/mmol; Perkin Elmer), an orthosteric agonist of CB1, was added at 0.5 nM. Nonspecific binding was established by treating with a high concentration of unlabeled CP55,940 (10 μM; Tocris). The membranes were incubated at 30°C for 60 min, and the reaction was terminated with the addition of 300 μL of Tris-Mg^2+-EDTA (TME) buffer with 5% bovine serum albumin (BSA). The mixture was harvested by filtration through a Brandel cell harvester with Whatman GF/C filter paper. Liquid scintillation counting was used to measure radioactivity.
To synthesize the target azaindole-2-carboxamides, it requires corresponding azaindole-2-carboxylic acids (i.e., 1b and 8) as the key building blocks (Fig. 2). To access these azaindole-2-carboxylic acids, we used the Hemetsberger–Knittel indole synthesis, which involves Knoevenagel condensation between a pyridinecarbaldehyde and the azido acetate 5.[20] […] In this investigation, the 6-azaindole-2-carboxylic acid 1b was obtained from a commercial source (Achemtek, Worcester, MA). […] At the receptor binding level, when α is >1, the ligand is a positive allosteric modulator, whereas when α is <1, the ligand is a negative allosteric modulator. Accordingly, when α is equal to 1, it indicates no allosteric modulation on orthosteric ligand binding.

CB1 [2] = target: T1, CB1; assay: [35S]GTPγS binding evaluation (G-protein coupling); assay type: biochemical; conditions: percent of basal; for [35S]GTPγS binding, allosteric modulator alone: CB1 membranes treated with modulator alone; for [35S]GTPγS binding in the presence of CP55,940: modulator at 5 and 10 μM plus 0.1 μM CP55,940, compared to 0.1 μM CP55,940 alone
Description: as §1
To assess the impact of 3c and 3d on G-protein coupling of CB1, GTPγS assays were performed essentially as described previously.[20] […] GTPγS binding assay buffer (50 mM Tris-HCl, pH 7.4, 3 mM MgCl2, 0.2 mM EGTA, and 100 mM NaCl) was added to 200 μL. The membranes were incubated for 1 h at 30°C. To determine nonspecific binding, 10 μM unlabeled GTPγS (Sigma) was used. To determine basal activity, membrane preparations were treated with vehicle (dimethylsulfoxide or DMSO) alone. Termination of the reaction was achieved through filtration using Whatman GF/C filter papers and washing with cold TME buffer. Bound radioactivity was measured by liquid scintillation counting.

physchem = assay type: physicochemical; conditions: for solubility thermodynamic at 24 h: 37 °C, pH 7.4, aqueous buffer, thermodynamic from solid
Description: The thermodynamic solubility of selected compounds were tested according to previously reported methods.[16],[22] In brief, stock solution of test compound (1 mg/mL) in acetonitrile was prepared and then diluted with mobile phase to prepare the calibration standards in the concentration range of 0.1–50 μg/mL. Following this, 2 mg of test compound powder was suspended in 2 mL of phosphate-buffered saline (PBS; 10 mM) at pH 7.4 and 37°C. The suspension was stirred at 37°C with 800 rpm stirring for 24 h. After completion of the incubation, the saturated suspension was filtered through a syringe polytetrafluoroethylene filter (0.45 μm), which has no absorption for the compounds. 200 μL of the filtrate was diluted with 800 μL acetonitrile immediately to a final volume of 1 mL. Subsequently, 20 μL of this solution was used for the high-performance liquid chromatography (HPLC) analysis, which was analyzed on Shimadzu HPLC (LC model: LC20AB, UV/vis detector: SPD20A; Autosampler: SIL-20A HT) with a Phenomenex reverse phase C18 column (250×3 mm, Luna 5 μm C18 100Å). The HPLC analysis was carried out by using the mixture of acetonitrile and water (60:40 v/v) as the mobile phase with a flow rate of 1 mL/min. The signals were detected at UV wavelength 254 nm. At this wavelength, each peak's area under the curve was measured and used for the quantitative evaluation.

[3] = membranes of HEK293T cells expressing CB1, tracer [3H]CP55,940 0.5 nM, 30°C, 60 min
[4] = membranes of HEK293T cells expressing CB1, tracer [3H]CP55,940 0.5 nM, 30°C, 60 min, read-out: KB (equilibrium dissociation constant)

T1 sequence (P21554 whole entry): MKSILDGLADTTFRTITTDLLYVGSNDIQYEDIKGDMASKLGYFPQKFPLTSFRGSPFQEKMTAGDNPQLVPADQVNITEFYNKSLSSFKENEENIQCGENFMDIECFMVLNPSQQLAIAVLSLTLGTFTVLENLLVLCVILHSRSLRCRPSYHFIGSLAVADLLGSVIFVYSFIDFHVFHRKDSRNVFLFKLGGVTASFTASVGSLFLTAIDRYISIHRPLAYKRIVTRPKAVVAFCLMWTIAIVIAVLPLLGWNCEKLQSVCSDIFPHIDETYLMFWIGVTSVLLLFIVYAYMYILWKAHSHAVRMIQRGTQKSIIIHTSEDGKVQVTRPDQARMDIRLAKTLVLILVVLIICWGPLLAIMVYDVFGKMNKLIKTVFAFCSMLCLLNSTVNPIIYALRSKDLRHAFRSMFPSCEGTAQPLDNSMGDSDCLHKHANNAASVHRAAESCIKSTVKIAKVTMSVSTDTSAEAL

SMILES	reduction of binding to the CB1 receptor in comparison with indole-2-carboxamide counterpart 3b (CB1 [1]; 3d versus 3b)	KB (equilibrium dissociation constant) (CB1 [1]; [3])	Kb (CB1 [1]; [4])	[35S]GTPγS binding, allosteric modulator alone (CB1 [2])	[35S]GTPγS binding in the presence of CP55,940 (CB1 [2])	α (binding cooperativity factor) (CB1 [1])	Thermodynamic solubility (obtained from experiments) (physchem; 24 h, pH 7.4)	solubility in common organic solvents suitable for HPLC sample preparation (physchem)	solubility thermodynamic at 24 h (physchem)	Kb (CB1 [1])
O=C(NCCc1ccc(N2CCCCC2)cc1)c1cc2cc(Cl)ncc2[nH]1 [Compound 3d]	about 25 fold	modest binding affinity	5600 nM	inhibition of G-protein coupling was also seen	inhibition of GTPγS binding					
O=C(NCCc1ccc(N2CCCCC2)cc1)c1cc2cc(Cl)cnc2[nH]1 [Compound 9b]		completely lost their binding affinity	> 10000 nM							
CN(C)c1ccc(CCNC(=O)c2cc3cc(Cl)ccc3[nH]2)cc1 [Compound 3a]			300 nM			4.2	0 µg/mL			
CN(C)c1ccc(CCNC(=O)c2cc3cc(Cl)cnc3[nH]2)cc1 [Compound 9a]		completely lost their binding affinity	> 10000 nM					exceptionally low solubility	3 µg/mL (≈ 8.75 µM)	
O=C(NCCc1ccc(N2CCCCC2)cc1)c1cc2cc(Cl)ccc2[nH]1 [Compound 3b]						5.1				200 nM
CN(C)c1ccc(CCNC(=O)c2cc3cc(Cl)ncc3[nH]2)cc1 [Compound 3c]		modest binding affinity	2400 nM	inhibition of G-protein coupling was also seen	inhibition of GTPγS binding	3.2			1.6 µg/mL (≈ 4.67 µM)	

— PMC6290480 (Cannabis and Cannabinoid Research, 2018)
